Columns and labels:
ATXN3 pre-mRNA = assay: RT-qPCR Assay to Quantify Exon 4 Skipping in ATXN3 pre-mRNA in Cells; format: cell-based; conditions: percent exon 4 skipping in ATXN3 pre-mRNA, RT-qPCR of cell lysates; average IC50
Summary of the method: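 IC50 derives from a dose-response fit of percent exon 4 skipping, quantified by RT-qPCR on crude lysates. Compounds tested as 7-point 3.16-fold dilutions in duplicate; cells (10,000/well) were exposed for 24 h at 37 °C before lysis.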

[1] = tested on: Total ATXN3 (tATXN3) protein; assay: Endogenous Total ATXN3 (tATXN3) Protein Assay (MSD immunoassay of cell lysates); format: cell-based; conditions: average IC50, total ATXN3 protein in cell lysate after 48 h with compound (Table 1)
Summary of the method: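 By electrochemiluminescent MSD sandwich immunoassay (mouse monoclonal capture, rabbit monoclonal and SULFO-TAG anti-rabbit detection), endogenous ATXN3 was quantified in lysates of cells treated 48 h at 37° C at 10,000 cells/well. Treatment used a 7-point 3.16-fold duplicate dilution series, with average IC50 grouped into star categories.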

| Compound | IC50 (ATXN3 pre-mRNA) | IC50 [1] |
| --- | --- | --- |
| N[C@H]1CCCC[C@@H]1c1c(I)c2nc(Cl)nc(NCc3ccco3)c2n1C(F)F [Compound 304, 6-((1S,2S)-2-aminocyclohexyl)-2-chloro-5-(difluoromethyl)-N-(furan-2-ylmethyl)-7-iodo-5H-pyrrolo[3,2-d]pyrimidin-4-amine] | 30 to 300 nM | 30 to 300 nM |
| N[C@@H]1CC=CC[C@H]1c1sc2c(NCc3cccs3)nc(Cl)nc2c1Cl.N[C@H]1CC=CC[C@@H]1c1sc2c(NCc3cccs3)nc(Cl)nc2c1Cl (mixture of isomers) [Compound 240, 6-((1R,6R)-6-aminocyclohex-3-en-1-yl)-2,7-dichloro-N-(thiophen-2-ylmethyl)thieno[3,2-d]pyrimidin-4-amine and 6-((1S,6S)-6-aminocyclohex-3-en-1-yl)-2,7-dichloro-N-(thiophen-2-ylmethyl)thieno[3,2-d]pyrimidin-4-amine] | ≤ 30 nM | ≤ 30 nM |
| N[C@H]1CCC(=O)C[C@@H]1c1sc2c(NCc3ccco3)cc(Cl)nc2c1Cl [Compound 221, (3S,4S)-4-amino-3-(3,5-dichloro-7-((furan-2-ylmethyl)amino)thieno[3,2-b]pyridin-2-yl)cyclohexan-1-one] | ≤ 30 nM | ≤ 30 nM |
| Cc1c([C@H]2CC=CC[C@@H]2N)sc2c(NCc3cccs3)cc(Cl)nc12 [Compound 222, 2-((1S,6S)-6-aminocyclohex-3-en-1-yl)-5-chloro-3-methyl-N-(thiophen-2-ylmethyl)thieno[3,2-b]pyridin-7-amine] | ≤ 30 nM | ≤ 30 nM |
| N[C@@H]1COCC[C@H]1c1sc2c(NCc3cccs3)cc(Cl)nc2c1Br [Compound 140, 2-((3S,4R)-3-aminotetrahydro-2H-pyran-4-yl)-3-bromo-5-chloro-N-(thiophen-2-ylmethyl)thieno[3,2-b]pyridin-7-amine] | 300 to 1000 nM | 300 to 1000 nM |
| N[C@@H]1CC=CC[C@H]1c1sc2c(NCc3ccccc3)cc(Cl)nc2c1I [Compound 345, 2-((1R,6R)-6-aminocyclohex-3-en-1-yl)-N-benzyl-5-chloro-3-iodothieno[3,2-b]pyridin-7-amine] | 30 to 300 nM | 30 to 300 nM |
| 2-((1R,2R)-2-aminocyclohexyl)-N-benzyl-5-chloro-3-(prop-1-yn-1-yl)thieno[3,2-b]pyridin-7-amine and 2-((1S,2S)-2-aminocyclohexyl)-N-benzyl-5-chloro-3-(prop-1-yn-1-yl)thieno[3,2-b]pyridin-7-amine [Compound 226] | ≤ 30 nM | ≤ 30 nM |
| N[C@@H]1CCCO[C@H]1c1sc2c(NCc3ccco3)nc(Cl)nc2c1Br (single isomer, unassigned) [Compound 42, 6-((2R,3R)-3-aminotetrahydro-2H-pyran-2-yl)-7-bromo-2-chloro-N-(furan-2-ylmethyl)thieno[3,2-d]pyrimidin-4-amine or 6-((2S,3S)-3-aminotetrahydro-2H-pyran-2-yl)-7-bromo-2-chloro-N-(furan-2-ylmethyl)thieno[3,2-d]pyrimidin-4-amine] | 300 to 1000 nM | 300 to 1000 nM |
| 6-((1S,2S)-2-aminocyclohexyl)-N-(but-2-yn-1-yl)-2-chloro-7-iodothieno[3,2-d]pyrimidin-4-amine [Compound 286] | 30 to 300 nM | 30 to 300 nM |
| N[C@@H]1CCC[C@@H](O)[C@H]1c1sc2c(NCc3cccs3)cc(Cl)nc2c1Br [Compound 355, (1R,2S,3R)-3-amino-2-(3-bromo-5-chloro-7-((thiophen-2-ylmethyl)amino)thieno[3,2-b]pyridin-2-yl)cyclohexan-1-ol] | 30 to 300 nM | 30 to 300 nM |
| Cc1c([C@H]2CC=CC[C@@H]2N)n(C(F)F)c2c(NCc3ccccc3)nc(Cl)nc12 [Compound 399, 6-((1S,6S)-6-aminocyclohex-3-en-1-yl)-N-benzyl-2-chloro-5-(difluoromethyl)-7-methyl-5H-pyrrolo[3,2-d]pyrimidin-4-amine] | 300 to 1000 nM | 300 to 1000 nM |
| 2-((3R,4S)-3-aminotetrahydro-2H-pyran-4-yl)-5-chloro-3-iodo-N-(thiophen-2-ylmethyl)thieno[3,2-b]pyridin-7-amine and 2-((3S,4R)-3-aminotetrahydro-2H-pyran-4-yl)-5-chloro-3-iodo-N-(thiophen-2-ylmethyl)thieno[3,2-b]pyridin-7-amine [Compound 275] | 30 to 300 nM | 30 to 300 nM |
| (1R,5R,6S)-5-amino-6-(3-bromo-5-chloro-7-((thiophen-2-ylmethyl)amino)thieno[3,2-b]pyridin-2-yl)cyclohex-2-en-1-ol and (1S,5S,6R)-5-amino-6-(3-bromo-5-chloro-7-((thiophen-2-ylmethyl)amino)thieno[3,2-b]pyridin-2-yl)cyclohex-2-en-1-ol [Compound 329] | 30 to 300 nM | 30 to 300 nM |
| 2-((1R,2R,6S)-2-amino-6-fluorocyclohexyl)-3-bromo-5-chloro-N-(thiophen-2-ylmethyl)thieno[3,2-b]pyridin-7-amine and 2-((1S,2S,6R)-2-amino-6-fluorocyclohexyl)-3-bromo-5-chloro-N-(thiophen-2-ylmethyl)thieno[3,2-b]pyridin-7-amine [Compound 335] | 30 to 300 nM | 30 to 300 nM |
| N[C@H]1CCCC[C@@H]1c1sc2c(NCc3ccccc3)cc(Cl)nc2c1Cl [Compound 237, 2-((1S,2S)-2-aminocyclohexyl)-N-benzyl-3,5-dichlorothieno[3,2-b]pyridin-7-amine] | ≤ 30 nM | ≤ 30 nM |
| Cc1c([C@H]2CC=CC[C@@H]2N)sc2c(NCc3ccccc3F)cc(Cl)nc12 [Compound 341, 2-((1S,6S)-6-aminocyclohex-3-en-1-yl)-5-chloro-N-(2-fluorobenzyl)-3-methylthieno[3,2-b]pyridin-7-amine] | 30 to 300 nM | 30 to 300 nM |
| Cc1c([C@H]2COCC[C@@H]2N)sc2c(NCc3ccccc3)cc(Cl)nc12 [Compound 321, 2-((3R,4S)-4-aminotetrahydro-2H-pyran-3-yl)-N-benzyl-5-chloro-3-methylthieno[3,2-b]pyridin-7-amine] | 30 to 300 nM | 30 to 300 nM |
| N[C@@H]1CC=CC[C@H]1c1sc2c(NCc3cccs3)nc(Cl)nc2c1Br [Compound 385, 6-((1R,6R)-6-aminocyclohex-3-en-1-yl)-7-bromo-2-chloro-N-(thiophen-2-ylmethyl)thieno[3,2-d]pyrimidin-4-amine] | 30 to 300 nM | 30 to 300 nM |
| 6-((3R,4S)-3-aminotetrahydro-2H-pyran-4-yl)-2-chloro-N-(furan-2-ylmethyl)-7-vinylthieno[3,2-d]pyrimidin-4-amine and 6-((3S,4R)-3-aminotetrahydro-2H-pyran-4-yl)-2-chloro-N-(furan-2-ylmethyl)-7-vinylthieno[3,2-d]pyrimidin-4-amine [Compound 390] | 30 to 300 nM | 300 to 1000 nM |
| N[C@H]1COCC[C@@H]1c1sc2c(NCc3ccco3)cc(Cl)nc2c1Br [Compound 238, 2-((3R,4S)-3-aminotetrahydro-2H-pyran-4-yl)-3-bromo-5-chloro-N-(furan-2-ylmethyl)thieno[3,2-b]pyridin-7-amine] | 30 to 300 nM | ≤ 30 nM |
| Cc1c([C@@H]2OCCC[C@H]2N)sc2c(NCc3ccccc3)nc(Cl)nc12 [Compound 64, 6-((2R,3R)-3-aminotetrahydro-2H-pyran-2-yl)-N-benzyl-2-chloro-7-methylthieno[3,2-d]pyrimidin-4-amine] | > 1000 nM | > 1000 nM |
